The source made the active and inactive calls. No rule for the calls is given here.

This assay deals with S. cerevisiae TIM10 counterscreen strain, luminescence. The assay is described as follows: inhibitors of TIM10 yeast strain luminescence, dose response, counter-screen for tim10-1 inhibitor project, S. cerevisiae, uHTS hits (AID 504542).

As to `O=C(/C=C/c1ccc2c(c1)OCCCO2)c1ccccc1O`, the 50% inhibitory concentration (IC50) – broadly, the concentration that gives 50% inhibition – is 4.68 µM.
To `CCOC(=O)c1ccc(NC(=O)CC2OCCN(CC)C2=O)cc1` (stereo unspecified) belongs 1.28 µM.
The same measure for `Cc1cc(/C=C\c2ccc3cc(N(C)C)ccc3[n+]2C)c(C)n1-c1ccccc1`: 3.92 µM.
Take `O=S(=O)(CCN(CCS(=O)(=O)C(F)(F)F)CC1CCCO1)C(F)(F)F` (stereo unspecified): the IC50 was 5.4 µM.
On to `Cc1cccc(NC(=O)c2ccc([N+](=O)[O-])s2)n1`, for which the IC50 is 1.39 µM.
On to `COc1ccc(-c2[nH]ncc2N=Nc2ccccc2)cc1`, for which the IC50 was 5.88 µM.
To `Cc1ccc(F)c([C@H]2C3C=CCC(c4ccccc4)C3C(=O)N2Cc2ccccc2)c1` (stereo partly specified) belongs 6.99 µM; to `CCCCCCCCCCOC(=O)Cn1c(COc2ccccc2OC)[n+](C)c2ccccc21`, 8.06 µM; to `COc1cc(/C=C/c2ccc3cccc(O)c3n2)c(Br)cc1O`, 9.2 µM.
Consider `N/C(=N\OC(=O)c1ccc(F)cc1)c1ccc(Br)cc1`, for which the IC50 was > 100 µM (inactive).
As to `O=C(c1cc(COc2ccc(F)cc2Cl)on1)N1CCN(c2cnccn2)CC1`, the half-inhibitory concentration (IC50) is 3.98 µM.
The same measure for `COc1ccc(Br)cc1[C@H]1[C@H]2C=CC[C@@H](C)[C@@H]2C(=O)N1Cc1ccccc1`: 6.86 µM; for `COC(=O)C(C(C)=O)C1=C/C(=N\S(=O)(=O)c2ccc(C)cc2)c2ccccc2C1=O` (stereo unspecified): 3.81 µM; for `COc1cc(N=c2ssnc2Cl)c(OC)cc1Cl`: 3.15 µM.
The same measure for `Cc1cc(C)cc(N2C(=O)CC(Sc3nnnn3-c3ccccc3)C2=O)c1` (stereo unspecified): 0.69 µM.
In the case of `COc1ccc(Br)cc1[C@H]1[C@@H]2C=CCC[C@@]2(C)C(=O)N1Cc1ccccc1`, the IC50 is 6.12 µM.
To `Fc1ccccc1CNC(=S)Nc1cccc(C(F)(F)F)c1` belongs 8.28 µM; to `N/C(=N\OC(=O)c1ccc(Cl)cc1)c1ccc(Cl)cc1`, > 100 µM (inactive); to `COc1ccc2cc3cc(C(=O)NCCN4CCc5ccccc5C4)oc3nc2c1`, < 0.2 µM.
The same measure for `S=C(NCCCc1ccccc1)Nc1ccc(Cl)cc1`: 3.88 µM.
The same measure for `COc1cc(C(=O)Nc2ccc(Cl)c(C(F)(F)F)c2)cc(OC)c1OC`: 27.1 µM; for `CCCOc1ccc(N2C(=O)CC(N3CCC(O)(c4cccc(C(F)(F)F)c4)CC3)C2=O)cc1` (stereo unspecified): 3.95 µM; for `CCOC(=O)/C=C/C(=O)OCC(=O)Nc1ccc([N+](=O)[O-])cc1`: 3.98 µM.
`COc1ccc(C(=O)O/N=C(\N)c2ccc(Cl)cc2)cc1`: the IC50 was 4.07 µM.
`Nc1ccccc1C(=O)/C=C/c1ccc2c(c1)OCO2`: the IC50 was 5.88 µM.
The same measure for `CCCn1c(CC)nc([N+](=O)[O-])c1S(=O)(=O)c1ccccc1`: 2.72 µM.
In the case of `O=C(NNC(=S)Nc1cccc(C(F)(F)F)c1)c1ccc(Cl)cc1Cl`, the IC50 was 8.13 µM.
Turning to `Clc1ccccc1OCc1nnc(-c2ccccc2Br)o1`, the IC50 is 16.6 µM.
With `CCCOc1ccccc1NC(=O)/C=C/C(N)=O`, the IC50 was 0.87 µM.
Regarding `CC1=C/C(=N\OS(=O)(=O)c2ccccc2)C(C)=CC1=O`, the IC50 is < 0.2 µM.
As for `Cc1nc(Nc2ccccc2)sc1-c1ccccc1`, the IC50 was 3.09 µM.
The same measure for `CN(C)CCCN(C(=O)c1cc2cc([N+](=O)[O-])ccc2s1)c1nc2cc3c(cc2s1)OCCO3`: 10.8 µM; for `Cc1nonc1C1CCCN1C(=O)c1cc(COc2cccc(C(F)(F)F)c2)on1` (stereo unspecified): 9.73 µM.
To `CC[C@@H]1CC=C[C@H]2[C@H]1C(=O)N(Cc1ccccc1)[C@H]2c1ccoc1` belongs 2.5 µM.
The same measure for `Cc1cc(C)c(CSc2ncc(-c3ccc([N+](=O)[O-])cc3)[nH]2)c(C)c1`: 10.1 µM; for `CCOc1ccccc1NC(=O)/C=C/C(N)=O`: 3.32 µM; for `O=C(Nc1cccnc1)c1cn(-c2ccccc2)nc1-c1cccs1`: 8.73 µM.
For `COc1ccc(-n2cc(-c3ccccc3)c3c(=S)nc[nH]c32)cc1`, the IC50 was > 100 µM (inactive).
In the case of `Cc1ccc(/C(N)=N/OC(=O)C(C)c2ccc([N+](=O)[O-])cc2)cc1` (stereo unspecified), the concentration for half-maximal inhibition (IC50) is 22 µM.
Consider `Clc1ccc(CNc2nc(CN3CCOCC3)nc3scc(-c4ccccc4)c23)cc1`, for which the half-maximal inhibitory concentration (IC50) is 4.96 µM.
The same measure for `O=c1c2ccccc2nc(/C=C/c2ccc([N+](=O)[O-])o2)n1CCCO`: 4.49 µM; for `O=C(O)/C=C/C(=O)c1ccc2c(c1)CCc1ccccc1-2`: 3.32 µM.
Turning to `COc1ccccc1N1C(=O)CC(Sc2n[nH]c(-c3cccc(C)c3)n2)C1=O` (stereo unspecified), the half-maximal inhibitory concentration (IC50) was 3.62 µM.
The same measure for `CCCOc1ccc(CN(CCC#N)C(=S)NC(=O)c2ccccc2)cc1`: 10.2 µM.
`CCCCCCC(=O)N(O)C1CC(=O)N(c2ccc(C)cc2)C1=O` (stereo unspecified): the IC50 is 4.38 µM.
As for `CCCCc1ccc(NC(=S)Nc2ccc(Nc3ccc(OC)cc3)cc2)cc1`, the IC50 is 12.4 µM.
The same measure for `CCN(CC)C1CC(=O)N(c2cccc(Cl)c2)C1=O` (stereo unspecified): 1.74 µM; for `N/C(=N\OC(=O)CCC1CCCC1)c1ccccc1`: 16.8 µM; for `CCOC(=O)c1ccc(N=c2ssnc2Cl)cc1`: 1.87 µM.
To `COc1ccc(C(=O)O/N=C(\N)c2ccccc2Cl)cc1OC` belongs 9.27 µM; to `Cn1c(Cl)cnc1C1CC(=O)c2cc(Cl)ccc2O1` (stereo unspecified), 1.98 µM; to `O=[N+]([O-])c1ccccc1N/N=C/c1c[nH]c2ccccc12`, 5.11 µM.
Take `CNC(=O)c1nnsc1S(=O)(=O)c1ccc(Cl)cc1`: the half-inhibitory concentration (IC50) is 12.9 µM.
As for `N/C(Cc1ccc(Cl)cc1Cl)=N\OC(=O)Cc1ccc(Cl)cc1`, the IC50 is 0.74 µM.
For `COc1ccc(-c2cc(C3CC3)nc3sc(C#N)c(N)c23)cc1`, the half-inhibitory concentration (IC50) was 4.46 µM.
The same measure for `NNc1nc(-c2ccccc2)c2cc(Br)ccc2n1`: 15.9 µM; for `N/C(Cc1ccc(Cl)cc1)=N\OC(=O)c1ccc2ccccc2c1`: 0.26 µM.
On to `COc1ccc(Cl)cc1NC(=S)NCCc1ccc(F)cc1`, for which the IC50 is 11.3 µM.
To `CC(=O)c1ccc(NC(=S)NC(C)c2ccc(Cl)cc2Cl)cc1` (stereo unspecified) belongs 9.11 µM; to `O=C1CC(Sc2nnnn2-c2ccccc2)C(=O)N1c1cccc(Cl)c1` (stereo unspecified), 1.72 µM.
The same measure for `Cc1ccc(OCC(=O)O/N=C(\N)Cc2ccc(Cl)cc2)cc1`: 56.7 µM; for `Fc1ccc(CNC(=S)Nc2cccc(C(F)(F)F)c2)cc1`: 8.8 µM.
The same measure for `COc1ccc(/C(N)=N/OC(=O)c2ccc3c(c2)OCO3)cc1`: 4.94 µM; for `Cc1ccccc1/C=C/C(=O)c1ccc([N+](=O)[O-])o1`: 0.66 µM.
On to `N/C(=N\OC(=O)CCCc1ccccc1)c1ccccc1Cl`, for which the IC50 is 7.22 µM.
As for `CCCCNC(=S)N=Nc1c(O)[nH]c2ccccc12`, the IC50 is 3.19 µM.
To `CC(C)C(c1nnnn1C1CCCC1)N1CCCc2ccccc21` (stereo unspecified) belongs 5.94 µM; to `CC1=C/C(=N\OS(=O)(=O)c2ccccc2)C=CC1=O`, 0.26 µM; to `O=C(N/N=C/c1ccc[nH]1)c1cc(-c2ccc(Cl)cc2)nc2ccccc12`, 4.98 µM.
In the case of `COC(=O)c1c(N2C(=O)CC(Sc3ccccc3C(=O)O)C2=O)sc2c1CCCC2` (stereo unspecified), the IC50 is 1.49 µM.
The same measure for `CC1(CC(=O)N/N=C/c2ccc(OCc3ccc(Cl)cc3Cl)cc2)OCCCO1`: 2.94 µM; for `COc1cc(OC)c(C(=O)O/N=C(\N)c2ccc(C)cc2)cc1OC`: 5.99 µM; for `CCOc1ccc(-n2cc(-c3ccccc3)c3c(=O)[nH]cnc32)cc1`: 5.89 µM.
To `Cc1ccc(NC2=C/C(=N\S(=O)(=O)c3cccs3)c3ccccc3C2=O)c(C)c1` belongs 3.94 µM; to `COc1ccc(C(=O)O/N=C(\N)c2ccc(Br)cc2)cc1`, 7.29 µM.
Consider `C[C@@H]1CC=C[C@H]2[C@H]1C(=O)N(Cc1ccccc1)[C@H]2c1ccc(-c2ccoc2)cc1F`, for which the IC50 is 7.07 µM.
To `Nc1c(C(=O)Nc2ccccc2)c2nc3ccccc3nc2n1CCCN1CCOCC1` belongs 9.74 µM.
As to `O=C(NNC(=S)Nc1ccc(Cl)cc1)c1ccccc1OC(F)F`, the half-maximal inhibitory concentration (IC50) is 4.44 µM.
The same measure for `COc1ccc(/C(C)=N/NC(=S)NCCc2ccccc2)cc1`: 7.83 µM; for `N/C(=N\OC(=O)CCC1CCCC1)c1cccc([N+](=O)[O-])c1`: 8.32 µM.
For the compound `O=C(NNC(=S)Nc1cccc(C(F)(F)F)c1)c1cccc(Cl)c1`, the IC50 is 9.48 µM.
The same measure for `CCOC(=O)c1ccc(N2C(=O)C=CC2=O)cc1`: 0.41 µM; for `O=C(c1ccc2c3n(nc2c1)-c1ccccc1CO3)N1CCCCC1`: 8.99 µM.
`COc1ccc(NC2CCN(C3CC(=O)N(c4ccc(F)c(Cl)c4)C3=O)CC2)cc1` (stereo unspecified): the IC50 was 2.91 µM.
As for `Cc1cccc(NC(=S)N/N=C2/CCCCc3ccccc32)c1`, the IC50 is 2.28 µM.
To `O=C(/C=C\c1ccc(-c2ccccc2)o1)c1ccccc1` belongs 2.39 µM.
The same measure for `CC(C)NC(=S)N/N=C1\CCCCc2ccccc21`: 3.66 µM; for `COc1ccc(-c2nncnn2)cc1`: 3.43 µM.
To `COc1ccc(C(=O)O/N=C(\N)Cc2ccc(Cl)c(Cl)c2)cc1OC` belongs 0.8 µM.
As to `CC(C)CN(CC(C)C)C(=S)Nc1ccc(Cl)cc1`, the 50% inhibitory concentration (IC50) was 11 µM.
Consider `CC(=O)N1CCN(c2cc(N3CCc4ccccc4C3)c(F)cc2[N+](=O)[O-])CC1`, for which the IC50 is 19.6 µM.
In the case of `N#C/C(=N/Nc1ccc(OC(F)(F)F)cc1)C(N)=S`, the half-maximal inhibitory concentration (IC50) was 1.22 µM.
For `Cn1c(NCCCO)nc2c(c1=O)C1(CCCCC1)Cc1ccccc1-2`, the IC50 was 6.86 µM.
With `Cc1cc([N+](=O)[O-])ccc1-c1ccc(C2Nc3ccccc3C(=O)N2O)o1` (stereo unspecified), the IC50 is 9.76 µM.
The same measure for `CCCCNC(=S)Nc1ccc(C(F)(F)F)cc1`: 9.88 µM; for `COc1ccc(Cl)cc1NC(=O)CN(C)C(=O)C12CC3CC(CC(Cl)(C3)C1)C2`: 12 µM; for `O=C(OCn1ncc(Br)c(Br)c1=O)c1ccc(F)cc1`: 1.15 µM.
The same measure for `CN(CCCC(=O)O)c1ccc(N=Nc2ccc([N+](=O)[O-])cc2)cc1`: 14.5 µM; for `CC(C)C(=O)N1CCN(c2ccccc2NC(=O)c2ccc([N+](=O)[O-])o2)CC1`: 1.82 µM; for `Cc1ccc(NC(=O)c2cc(S(=O)(=O)NCCC3=CCCCC3)ccc2F)cc1`: 12.3 µM.
The same measure for `Cc1ccc(/C(N)=N/OC(=O)c2ccc3c(c2)OCO3)cc1`: 2.42 µM.
